The experiment deals with HCC1806 cells. The experiment in a line: TMT MS quantitative proteomics of live cells treated with FragTAC probes (HCC1806). Type of experiment: cell-based, Homo Sapiens. The settings on record: for Proteins targeted (downregulated) by FragTAC probe: value = downregulated protein; for Downregulated proteins targeted by FragTAC probes (protein listed for the probe code): cell line not given. As for the experimental part:
Mammalian cell culture: MDA-MB-231 cells (ATCC) were maintained in DMEM supplemented with 10% (v/v) fetal bovine serum (FBS), 1% (v/v) penicillin/streptomycin, and 2 mM glutamine. HCC1806 cells (ATCC) were maintained in RPMI supplemented with 10% (v/v) fetal bovine serum (FBS), 1% (v/v) penicillin/streptomycin, and 2 mM glutamine. All cell lines were grown at 37° C. in a humidified 5% CO2 atmosphere.
Treatment of Live Cells with FragTAC Probes: Separate 6 cm (for gel-based analyses) or 10 cm (for MS-based analyses) dishes of MDA-MB-231 cells or HCC1806 cells were grown to 80-95% confluency with DMEM media and RPMI media respectively. The growth medium was aspirated, and the cells were washed with Dulbecco's phosphate buffered saline (DPBS). The cells were incubated with serum-free media containing fragment probes (200 μM) or control probes (200 μM) for 6 hours at 37° C. under a 5% CO2 atmosphere. The cultures were scraped, washed with cold DPBS, and collected into 15 mL centrifuge tubes, then transferred to 1.5 mL Eppendorf tubes. The cell suspensions were centrifuged (1,400 g, 3 min) and the pellets were stored at −80° C. until the next stage of processing.
Sample preparation for TMT MS Quantitative Proteomics: For treatment of cell lysates, cells were collected, cell pellets were resuspended in 100 μL DPBS containing 1× Halt protease inhibitor cocktail, and lysed by sonication (15 ms on, 40 ms off, 15% amplitude, 1 s total). Protein concentrations were normalized (2 mg/mL in 100 μL with cold DPBS) using the Lowry Protein Assay (Pierce). Urea (48 mg) was weighed for each sample in 2 mL LoBind Eppendorf tubes and cell lysates (100 μL=200 μg) were added (final urea concentration=8 M). Pellets were resuspended in a freshly prepared 1:1 solution (50 μL) TCEP (200 mM in DPBS) and K2CO3 (600 mM in DPBS) and incubated (30 min, 37° C.) while shaking. After reaction, a solution of freshly prepared iodoacetamide (70 μL, 400 mM in DPBS) was added and incubated for 30 min at room temperature while protected from light. After reaction, 1.8 mL of cold 3:1:2 MeOH/CHCl3/H2O solution was added to each tube, and the samples were centrifuged (10,000×g, 10 min, 4° C.), forming a disc. The supernatant was carefully removed, MeOH (600 μL) was added, samples were centrifuged as previously described and the supernatant was removed. Cell pellets were resuspended in TEAB (160 μL, 100 mM, pH 8.5) and sonicated as described previously. Endoproteinase LysC (20 μL, ½ vial, 10 μg dissolved in 220 μL of 100 mM TEAB pH 8.5) was added to each and incubated at 37° C. for 2 h with shaking. Sequencing-grade modified porcine trypsin (20 μL, 1 vial, 20 μg dissolved in 220 μL of 100 mM TEAB pH 8.5), a solution of Protease Max (2 μL, 1% (w/v) in 100 mM TEAB pH 8.5) and a solution of CaCl2) (2 μL, 100 mM) were added to the samples and incubated at 37° C. overnight (14 h) with shaking. The digest was separated by centrifugation (12,000×g, 10 min, 4° C.). Peptide concentration was determined using Pierce Quantitative Fluorometric Peptide Assay Kit (Thermo Fisher Scientific, 23290) according to manufacturer's instructions. MS-grade acetonitrile (12.5 μL) was added to each and samples were labeled with respective TMT 10 plex isotope (8 μL, 20 μg/μL) for 1 h with occasional vortexing at RT. To quench, hydroxylamine (3 μL, 5% v/v) was added to each sample, vortexed, and incubated for 15 min at RT. Formic acid (5 μL) was added to each tube to acidify and the samples were dried under vacuum centrifugation. The samples were combined by redissolving the contents of one tube in a solution of trifluoroacetic acid (TFA, 400 μL, 0.1% in water) and transferred into each sample until all samples were redissolved. The stepwise process was repeated with formic acid (Buffer A, 200 μL, 0.1% in water) for a final volume of 600 μL. […]

Where [1] appears, read: protein with 2 unique peptides or more, depleted 2-fold or more relative to DMSO control (P value <0.05).
Setting [2] is: TMT proteomics, targets with 2 unique peptides or more and depleted 2-fold or more relative to DMSO control (P value <0.05).

SMILES strings stand for the structures. “Also recorded” adds a separate entry of the source.

Regarding `Cc1ncsc1-c1ccc(CNC(=O)[C@@H]2C[C@@H](O)CN2C(=O)[C@@H](NC(=O)CCOCCOCCOCCC(=O)N2CCN(C(c3ccccc3)c3ccccc3)C[C@@H]2c2ccccc2)C(C)(C)C)cc1` [CMC-6-123, (2S,4R)-1-((S)-16-((S)-4-benzhydryl-2-phenylpiperazin-1-yl)-2-(tert-butyl)-4,16-dioxo-7,10,13-trioxa-3-azahexadecanoyl)-4-hydroxy-N-(4-(4-methylthiazol-5-yl)benzyl)pyrrolidine-2-carboxamide], the “Proteins targeted (downregulated) by FragTAC probe” value (“Proteins targeted (downregulated)” below) under setting [1] is on record as “ZBTB1; also recorded: ZNF217”.

`Cc1ncsc1-c1ccc(CNC(=O)[C@@H]2C[C@@H](O)CN2C(=O)[C@@H](NC(=O)CCOCCC(=O)N2CCN(C(c3ccccc3)c3ccccc3)CC2)C(C)(C)C)cc1` [IF-049, (2S,4R)-1-((S)-2-(3-(3-(4-benzhydrylpiperazin-1-yl)-3-oxopropoxy)propanamido)-3,3-dimethylbutanoyl)-4-hydroxy-N-(4-(4-methylthiazol-5-yl)benzyl)pyrrolidine-2-carboxamide]: under setting [1], the “Proteins targeted (downregulated)” value is given as “YIPF3; also recorded: YLPM1; also recorded: ZNF185”.

As for `Cc1ncsc1-c1ccc(CNC(=O)[C@@H]2C[C@@H](O)CN2C(=O)[C@@H](NC(=O)CCOCCOCCOCCC(=O)N2CCN(CC3=C(c4ccc(Cl)cc4)CC(C)(C)CC3)CC2)C(C)(C)C)cc1` [IF-060, (2S,4R)-1-((S)-2-(tert-butyl)-16-(4-((4′-chloro-5,5-dimethyl-3,4,5,6-tetrahydro-[1,1′-biphenyl]-2-yl)methyl)piperazin-1-yl)-4,16-dioxo-7,10,13-trioxa-3-azahexadecanoyl)-4-hydroxy-N-(4-(4-methylthiazol-5-yl)benzyl)pyrrolidine-2-carboxamide], the “Downregulated proteins targeted by FragTAC probes (protein listed for the probe code)” value (“Downregulated proteins targeted” for short) under setting [2] was “GHITM”.

On to `CCn1c2ccccc2c2ccc(CN(C(=O)CCOCCOCCOCCC(=O)N[C@H](C(=O)N3C[C@H](O)C[C@H]3C(=O)NCc3ccc(-c4scnc4C)cc3)C(C)(C)C)C3CCCC3)cc21` [IF-062, (2S,4R)-1-((S)-17-(tert-butyl)-2-cyclopentyl-1-(9-ethyl-9H-carbazol-2-yl)-3,15-dioxo-6,9,12-trioxa-2,16-diazaoctadecan-18-oyl)-4-hydroxy-N-(4-(4-methylthiazol-5-yl)benzyl)pyrrolidine-2-carboxamide], for which the “Downregulated proteins targeted” value under setting [2] is recorded as “GHITM”.

Turning to `Cc1ncsc1-c1ccc(CNC(=O)[C@@H]2C[C@@H](O)CN2C(=O)[C@@H](NC(=O)CCOCCOCCOCCC(=O)NCCc2cn(Cc3ccccc3)c3ccccc23)C(C)(C)C)cc1` [IF-063, (2S,4R)-1-((S)-19-(1-benzyl-1H-indol-3-yl)-2-(tert-butyl)-4,16-dioxo-7,10,13-trioxa-3,17-diazanonadecanoyl)-4-hydroxy-N-(4-(4-methylthiazol-5-yl)benzyl)pyrrolidine-2-carboxamide], the “Proteins targeted (downregulated)” value under setting [2] was “TMBIM6”.

`Cc1ncsc1-c1ccc(CNC(=O)[C@@H]2C[C@@H](O)CN2C(=O)[C@@H](NC(=O)CCOCCOCCOCCC(=O)N2CCCC2c2noc(Cc3ccc(Br)cc3)n2)C(C)(C)C)cc1` (stereo partly drawn) [IF-064, (2S,4R)-1-((2S)-16-(2-(5-(4-bromobenzyl)-1,2,4-oxadiazol-3-yl)pyrrolidin-1-yl)-2-(tert-butyl)-4,16-dioxo-7,10,13-trioxa-3-azahexadecanoyl)-4-hydroxy-N-(4-(4-methylthiazol-5-yl)benzyl)pyrrolidine-2-carboxamide]: under setting [2], the “Downregulated proteins targeted” value is reported as “GHITM”.

For `Cc1ncsc1-c1ccc(CNC(=O)[C@@H]2C[C@@H](O)CN2C(=O)[C@@H](NC(=O)CCOCCOCCOCCC(=O)NC2=NC(c3ccccc3)c3ccccc3NC2=O)C(C)(C)C)cc1` (stereo partly drawn) [IF-065, (2S,4R)-1-((2S)-2-(tert-butyl)-4,16-dioxo-16-((2-oxo-5-phenyl-2,5-dihydro-1H-benzo[e][1,4]diazepin-3-yl)amino)-7,10,13-trioxa-3-azahexadecanoyl)-4-hydroxy-N-(4-(4-methylthiazol-5-yl)benzyl)pyrrolidine-2-carboxamide], under setting [2], the “Downregulated proteins targeted” value is listed as “BRD2” and the “Proteins targeted (downregulated)” value is recorded as “TMBIM6”.

For `Cc1ncsc1-c1ccc(CNC(=O)[C@@H]2C[C@@H](O)CN2C(=O)[C@@H](NC(=O)CCOCCOCCOCCNC(=O)CCc2nc(-c3ccccc3)c(-c3ccccc3)o2)C(C)(C)C)cc1` [IF-072, (2S,4R)-1-((S)-2-(tert-butyl)-19-(4,5-diphenyloxazol-2-yl)-4,17-dioxo-7,10,13-trioxa-3,16-diazanonadecanoyl)-4-hydroxy-N-(4-(4-methylthiazol-5-yl)benzyl)pyrrolidine-2-carboxamide], the “Proteins targeted (downregulated)” value under setting [1] is on record as “ZC3H14; also recorded: ZNF800”.

Consider `Cc1ncsc1-c1ccc(CNC(=O)[C@@H]2C[C@@H](O)CN2C(=O)[C@@H](NC(=O)CCOCCOCCOCCNC(=O)c2[nH]c3ccc(Cl)cc3c2-c2ccccc2)C(C)(C)C)cc1` [IF-073, 5-chloro-N-((S)-14-((2S,4R)-4-hydroxy-2-((4-(4-methylthiazol-5-yl)benzyl)carbamoyl)pyrrolidine-1-carbonyl)-15,15-dimethyl-12-oxo-3,6,9-trioxa-13-azahexadecyl)-3-phenyl-1H-indole-2-carboxamide], for which, under setting [2], the “Downregulated proteins targeted” value is “CYP1B1 and FAM177A1 and GHITM and LGMN”; the “Proteins targeted (downregulated)” value is “NPC2 and PCLAF and RPLP1 and SETX and TXNIP”.

Regarding `Cc1ccc(S(=O)(=O)N2CCN(C(=O)CCCCC(=O)N[C@H](C(=O)N3C[C@H](O)C[C@H]3C(=O)NCc3ccc(-c4scnc4C)cc3)C(C)(C)C)CC2)cc1` [IF-080, (2S,4R)-1-((S)-3,3-dimethyl-2-(6-oxo-6-(4-tosylpiperazin-1-yl)hexanamido)butanoyl)-4-hydroxy-N-(4-(4-methylthiazol-5-yl)benzyl)pyrrolidine-2-carboxamide], the “Downregulated proteins targeted” value under setting [2] was “CTSZ and INCENP and KIF20A and KIF22 and ANLN”. The “Proteins targeted (downregulated)” value under setting [2] is “PRC1 and RACGAP1 and TPX2 and TXNIP and UHRF1”; the “Proteins targeted (downregulated)” value under setting [1] is listed as “ZBTB11”.

`Cc1ncsc1-c1ccc(CNC(=O)[C@@H]2C[C@@H](O)CN2C(=O)[C@@H](NC(=O)CCOCCOCCC(=O)N2CCN(C(c3ccccc3)c3ccccc3)CC2)C(C)(C)C)cc1` [LPC020, (2S,4R)-1-((S)-2-(3-(2-(3-(4-benzhydrylpiperazin-1-yl)-3-oxopropoxy)ethoxy)propanamido)-3,3-dimethylbutanoyl)-4-hydroxy-N-(4-(4-methylthiazol-5-yl)benzyl)pyrrolidine-2-carboxamide]: the “Proteins targeted (downregulated)” value under setting [1] was “YIPF3 and ZC3H13 and ZC3HC1 and ZFR and ZMYM4 and ZNF638 and ZNF830”.

Take `Cc1ncsc1-c1ccc(CNC(=O)[C@@H]2C[C@@H](O)CN2C(=O)[C@@H](NC(=O)CCOCCOCCC(=O)NCCC(c2ccccc2)c2ccccc2)C(C)(C)C)cc1` [LPC022, (2S,4R)-1-((S)-2-(tert-butyl)-4,13-dioxo-17,17-diphenyl-7,10-dioxa-3,14-diazaheptadecanoyl)-4-hydroxy-N-(4-(4-methylthiazol-5-yl)benzyl)pyrrolidine-2-carboxamide]: the “Proteins targeted (downregulated)” value under setting [1] is “ZFR and ZMYM4”.

Values taken from patent US20250276069A1, “HETEROBIFUNCTIONAL COMPOSITIONS FOR TARGETED PROTEIN DEGRADATION AND METHODS FOR THEIR USE” (THE SCRIPPS RESEARCH INSTITUTE, priority 2021, published 2025).
